Results as given in paper PMC11989212, “Experimental Conditions to Retrieve Intrinsic Cooperativity α Directly from Single Binding Assay Data Exemplified by the Ternary Complex Formation of FKBP12, MAPRE1 and Macrocyclic Molecular Glues” (International Journal of Molecular Sciences, 2025).
Where “and” joins values, the source holds several entries; their conditions need not be identical. Equal values may be shown once.

Key:
[1] = biological target: T1, MAPRE1 in the presence of FKBP12 (Homo sapiens, UniProt P62942+Q15691); assay: Spectral shift target engagement assay, binding to MAPRE1 in the presence of 10 μM FKBP12 (ternary)
T1 construct: His-tag (N)
T1 sequence (Q15691 whole entry): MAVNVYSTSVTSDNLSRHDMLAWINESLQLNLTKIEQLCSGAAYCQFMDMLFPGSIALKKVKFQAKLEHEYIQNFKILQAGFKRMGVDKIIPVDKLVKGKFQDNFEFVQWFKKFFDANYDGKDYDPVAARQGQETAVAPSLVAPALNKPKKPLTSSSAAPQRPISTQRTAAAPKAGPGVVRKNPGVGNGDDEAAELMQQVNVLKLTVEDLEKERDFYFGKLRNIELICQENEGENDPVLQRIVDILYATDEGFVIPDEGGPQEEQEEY
T1 sequence (P62942 whole entry): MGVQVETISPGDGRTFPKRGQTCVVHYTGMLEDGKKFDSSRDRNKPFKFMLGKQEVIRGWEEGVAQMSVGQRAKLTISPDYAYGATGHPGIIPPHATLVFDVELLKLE
Source text: (§1) Our method of choice is the spectral shift method, which monitors binding events on the target isothermally and in equilibrium via an environment-sensitive near-infrared fluorophore. In the case of target engagement, either the proximity of the ligand towards the dye or structural changes occurring in the target as a result of binding lead to a change in the chemical environment of the fluorophore. Those changes affect the physiochemical properties of the reporter fluorophore and translate into either blue or red shifts (or peak broadening) of emission peaks upon ligand binding, which can be sensitively monitored by simultaneously recording the fluorescence at two wavelengths (i.e., at 650 nm and 670 nm). Calculating the ratio between the two fluorescence channels then allows to monitor subtle emission shifts that occur as a result of target engagement. Affinity measurements can then be performed by recording the spectral shift as a function of ligand concentration.
Binding study through MAPRE1: MAPRE1 was labeled via lysines using an NHS-conjugated dye. The final concentration of MAPRE1NHS (referring to [Ttot]) was 5 nM. Compounds could be titrated up to a concentration of 200 μM (referring to [Ltot]). […] However more accuracy could only be achieved at higher ligand concentrations—ideally at full target saturation. However, this was experimentally infeasible due to assay conditions (i.e., the requirement of maintaining a certain DMSO concentration or avoiding solubility issues of the ligand). Although the determined KT,1 values of binding to MAPRE1 are only approximations, their relative ranking reflects the underlying differences in the affinity of the ligands L to MAPRE1. Performing these experiments in duplicates confirmed the high signal-to-noise ratio, i.e., there was no significant deviation between the two curves, indicating a high accuracy of the interpolated EC50 values. Due to the low [Ttot] = 5 nM, this value coincides with KT,1 (1.8 mM − 0.005 mM/2 ≈ 1.8 mM). […] Consequently, KT,2 corresponds to 173 nM and not 177.5 nM.
(§2) His-tagged FKBP12 was labeled using the His-Tag Labeling Kit RED-tris-NTA 2nd Generation (MO-L018; NanoTemper Technologies GmbH). The affinity between NTA dye and the His-tag of FKBP12 was determined as 7 nM. MAPRE1 was labeled using the Protein Labeling Kit RED-NHS 2nd Generation (MO-L011; NanoTemper Technologies GmbH). In brief, 10 µM of MAPRE1 was incubated with a 3-fold molar excess of fluorophore for 30 min. The unreacted fluorophore was removed by performing a size exclusion purification (B-column). Collecting the protein fraction yielded 1.8 µM labeled MAPRE1, with a degree of labeling of 0.8, as determined on a Nanodrop.
A 1:2 dilution series of all compounds (starting from the 10 mM stock concentration) was prepared in pure DMSO. Each concentration was diluted 25-fold with assay buffer (20 mM HEPES, pH 7.4, 150 mM NaCl, 1 mM DTT (all from Carl Roth, Karlsruhe, Germany), and 0.01% Pluronic F-127 (Sigma Aldrich, Taufkirchen, Germany)). Next, 10 µL from each of the prepared ligand dilutions was transferred into an empty well on a Dianthus Microwell Plate (DI-P001A). Another 10 µL of 2-fold concentrated labeled protein (either in the absence or the presence of 20 µM counter protein, both in assay buffer then yielded the final assay concentrations. Interaction measurements were prepared in duplicates for each condition. For binary interactions of compounds with MAPRE1, a final target concentration of 5 nM and a highest ligand concentration of 50 µM was prepared. For ternary interactions of compounds and MAPRE1 in the presence of 10 µM unlabeled FKBP12, the highest ligand concentration was increased to 200 µM, the highest concentration achievable while maintaining a constant 2% DMSO concentration. For all interactions measured via FKBP12, the target was prepared at a final concentration of 40 nM, supplemented with 5 nM NTA fluorophore. […]

[2] = test system: FKBP12:R,S-SLF-X:MAPRE1 ternary complex; parameters: method as in PMID 40059881; conditions: TR-FRET proximity assay, reported earlier; cited from earlier work
[3] = biological target: FKBP12 (Homo sapiens, UniProt P62942); assay: Spectral shift target engagement assay, binary binding to FKBP12; conditions: 40 nM FKBP12-NTA
Chain of FKBP12 (P62942 whole entry, species assumed): as the sequence (P62942 whole entry) above
Source text: as §1
Binding studies through FKBP12: To monitor the binding of R,--SLF-11 by the stronger binding FKBP12 in the absence and in the presence of 10 μM MAPRE1 via %Cbound, binary and %Cbound, ternary, respectively, the concentration of reversibly NTA-labeled FKBP12 was limited to [Ctot] = 40 nM. […] In contrast to the experimental setup in the previous two binding experiments with monitoring through the weaker binding protein MAPRE1, where the applied protein concentrations were optimally chosen, this is not the case for the binding experiment through the stronger binder FKBP12. First of all, the applied excess of T with [Ttot] = 10 μM is roughly 20000-fold off of the proposed 100 times KT,1 threshold, which would correspond to 180 mM. Only under such excess conditions of T can the equilibrium of forming TL under the constraint that all ligand L is bound to T be reached to ensure that [Ltot] approaches the “ligand” concentration [TL]. […] If KC,2 is sufficiently high, the 20 nM deviation to correct for the protein concentration could be neglected. However, the resulting calculated value for KC,2 is 0.023 nM, accounting for the cooperativity α = 10,405 and KC,1 = 234 nM as derived by the MAPRE1 experiment. This value is far below the applied protein concentration of [Ctot] = 40 nM and makes it infeasible to estimate KC,2 from the EC50 of the %Cbound, ternary curve. Consequently, the EC50 shifts, meaning the apparent cooperativity, from monitoring the binding by the stronger binding protein C are diverging from the underlying intrinsic cooperativity α. […] The deviation of calculated (254 nM/24.2 nM = 10.5) and measured apparent cooperativity (254 nM/66 nM = 3.8) can be explained by a negative cooperativity induced by the His6-NTA tag of FKBP12. Studies to lower [Ctot] and identify a better position for the spectral shift tag on FKBP12 are ongoing (Figure 6a).
as §2
A 1:2 dilution series of all compounds (starting from the 10 mM stock concentration) was prepared in pure DMSO. Each concentration was diluted 25-fold with assay buffer (20 mM HEPES, pH 7.4, 150 mM NaCl, 1 mM DTT (all from Carl Roth, Karlsruhe, Germany), and 0.01% Pluronic F-127 (Sigma Aldrich, Taufkirchen, Germany)). Next, 10 µL from each of the prepared ligand dilutions was transferred into an empty well on a Dianthus Microwell Plate (DI-P001A). […]

Q: With `C=C1CCN2C(=O)COc3cccc(c3)C(CCc3ccc(OC)c(OC)c3)OC(=O)C3CCCCN3C(=O)C(=O)C(C)(C)COC(=O)C(CN)NC(=O)C2C1` (centres unmarked) [R,S-SLF-7] as the molecule, how does the EC50 ([1]; 5 nM MAPRE1-NHS, 10 μM FKBP12, read-out: EC50 of the %Tbound, ternary curve) read?
A: 1.99 µM

Q: What about the “Ratio [Ctot]/KC,1” value ([1]; [Ctot] = 10 μM FKBP12) of the same molecule?
A: 60

Q: What about the “100 × (EC50 %Tbound ternary − 0.5 [Ttot] − KT,2)/KT,2” value ([1]; difference between EC50 of the %Tbound, ternary curve and KT,2, [Ttot] = 5 nM) of the same molecule?
A: 2% and 2.1%

Q: What about the “Intrinsic cooperativity α” value ([1]; from KC,1, KT,1 and EC50 of the %Tbound, ternary curve with the mathematical model, [Ctot] = 10,000 nM, [Ttot] = 5 nM) of the same molecule?
A: 237

Q: What about the Kd ([1]; ternary Kd, model-based ([CL] at [Ltot] = EC50), read-out: KT,2) of the same molecule?
A: 1.94 µM

Q: What about the “TR-FRET Recruitment Assay (%Amax)” value [2] of the same molecule?
A: 45%

Q: What about the EC50 ([3]; no MAPRE1, read-out: EC50 of the %Cbound, binary curve) of the same molecule?
A: 0.186 µM

Q: And the Kd ([3]; KC,1 = EC50 − [Ctot]/2)?
A: 0.166 µM
